Assay results as given in US20250313555A1, “2-SUBSTITUTED THIAZOLE AND BENZOTHIAZOLE COMPOSITIONS AND METHODS AS DUX4 INHIBITORS” (ALTAY THERAPEUTICS, INC., priority 2022, published 2025).

System: MBD3L2 RNA
Assay: RNA isolation and qPCR to determine MBD3L2 RNA levels in FSHD cells
Assay type: cell-based
Settings: 48 hrs
Method in brief: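 FSHD cells were treated one day after seeding with a DUX4 inhibitor (11 μM or 3.6 μM) for 48 h. Total RNA was DNase-treated and reverse-transcribed with random hexamers and M-MLV. MBD3L2 was quantified by SYBR Green qPCR in triplicate against EEF1A as the reference gene.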

SMILES	qPCR MBD3L2 Inhib at 11 µM
CC(=O)N[C@@H]1CC[C@H](C(=O)Nc2nc3ccccc3s2)C1 [Compound 182]	YES
CC(=O)NCCCC(=O)N[C@H]1CC[C@H](Cc2nc3ccccc3s2)CC1 [Compound 172]	YES
CC(=O)N[C@@H]1CC[C@@H](C(=O)Nc2nc3ccccc3s2)C1 [Compound 185]	YES
CC(=O)NCCCC(=O)NCCCc1nc2ccccc2s1 [Compound 106]	YES
CC(=O)NC1CCC(C(=O)Nc2nc3ccccc3s2)C1 (stereo not drawn) [Compound 131]	YES
O=C(CCCN1C(=O)CCC1=O)NC1CCCC1c1nc2ccccc2s1 (stereo not drawn) [Compound 92]	YES
CC(=O)NCCCC(=O)N[C@@H]1CC[C@H](c2nc3ccccc3s2)C1 [Compound 114]	YES
O=C(CCCN1CCCC1=O)NCCCc1nc2ccccc2s1 [Compound 118]	YES
O=C(CCCN1C(=O)CCC1=O)N[C@H]1CC[C@H](c2nc3ccccc3s2)C1 [Compound 161]	YES
CC(=O)NCCCC(=O)Nc1cc(C)cc(-c2nc3ccccc3s2)c1 [Compound 72]	YES
CC(=O)NCCCNC(=O)c1cc(C#N)cc(-c2nc3cc(F)ccc3s2)c1 [Compound 188]	YES
CC(=O)NCCCC(=O)N[C@H]1C[C@H](c2nc3ccccc3s2)C1 [Compound 112]	YES
O=C(CCC1CCC(=O)N1)Nc1ccc(-c2nc3ccccc3s2)o1 (stereo not drawn) [Compound 179]	YES
O=C(CCCc1cccnc1)N[C@H]1CC[C@@H](c2nc3ccccc3s2)CC1 [Compound 163]	YES
O=C(CCCN1CCCC1=O)NC1CCCC1c1nc2ccccc2s1 (stereo not drawn) [Compound 117]	YES
CC(=O)NCCCC(=O)Nc1nc(-c2ccccc2)cs1 [Compound 126]	YES
CC(C)(NC(=O)CCCN1CCCC1=O)c1ccc(-c2nc3ccccc3s2)cc1 [Compound 110]	YES
CC(=O)NCCCc1nc(CCCC(=O)Nc2ccc(-c3nc4cc(F)ccc4s3)cc2)co1 [Compound 138]	YES
O=C(CCCCN1C(=O)CCC1=O)N[C@H]1CC[C@@H](c2nc3ccccc3s2)CC1 [Compound 151]	YES
CC(=O)NC1CCC(C(=O)N[C@H]2CC[C@H](c3nc4ccccc4s3)CC2)C1 (stereo partly drawn) [Compound 134]	YES
O=C(CCCN1C(=O)CCC1=O)NC1CCC(Cc2nc3ccccc3s2)C1 (stereo not drawn) [Compound 158]	YES
CC(=O)NCCCC(=O)Nc1cc(Cl)cc(-c2nc3ccccc3s2)c1 [Compound 101]	YES
CC(=O)NCCCNC(=O)c1ccc(-c2nc3ccccc3s2)o1 [Compound 149]	YES
O=C(CCN1CCCC1=O)Nc1ccc(Cc2nc3ccccc3s2)cc1 [Compound 8]	YES
O=C(CCCN1C(=O)CCC1=O)NCCCc1nc2ccccc2s1 [Compound 91]	YES
CC(=O)NCCCC(=O)N[C@H]1C[C@@H](c2nc3ccccc3s2)C1 [Compound 113]	YES
O=C(CCCN1C(=O)CCC1=O)NC1CC(c2nc3ccccc3s2)C1 (stereo not drawn) [Compound 89]	YES

SMILES	qPCR MBD3L2 Inhib at 11 µM
CC(=O)NCCCC(=O)Nc1cc(Cl)cc(-c2nc3cc(F)ccc3s2)c1 [Compound 102]	YES
O=C(NCCc1cncnc1)c1ccc(-c2nc3ccccc3s2)cc1 [Compound 11]	YES
O=C(CCCc1cnco1)Nc1ccc(Cc2nc3ccccc3s2)cc1 [Compound 66]	YES
O=C(NCCCN1C(=O)CCC1=O)c1ccc(-c2nc3ccccc3s2)cc1 [Compound 7]	YES
O=C(CCCN1C(=O)CCC1=O)Nc1nc2ccccc2s1 [Compound 108]	YES
O=C(CCCN1C(=O)CCC1=O)N[C@@H]1CC[C@@H](c2nc3ccccc3s2)C1 [Compound 162]	YES
CC(=O)NCCCC(=O)Nc1nc2ccccc2s1 [Compound 107]	YES
CN(C(=O)CCCN1C(=O)CCC1=O)c1ccc(Cc2nc3ccccc3s2)cc1 [Compound 169]	YES
CC(=O)NCCCNC(=O)C12CCC(c3nc4ccccc4s3)(CC1)CC2 [Compound 173]	YES
O=C(NCCN1C(=O)CCC1=O)c1ccc(-c2nc3ccccc3s2)cc1 [Compound 22]	YES
CC(=O)CCCCC(=O)Nc1ccc(-c2nccs2)cc1 [Compound 23]	YES
CC(=O)N[C@H]1CC[C@@H](C(=O)Nc2nc3ccccc3s2)C1 [Compound 183]	YES
CN(C(=O)CCCN1C(=O)CCC1=O)c1ccc(-c2nc3cc(F)ccc3s2)cc1 [Compound 144]	YES
O=C(Cc1ccc(-c2nc3ccccc3s2)cc1)NCCN1CCCC1=O [Compound 119]	YES
O=C(CCCc1cccnc1)NC1CCC(c2nc3ccccc3s2)C1 (stereo not drawn) [Compound 157]	YES
O=C(CCCc1cccnc1)N[C@H]1CC[C@H](c2nc3ccccc3s2)CC1 [Compound 164]	YES
CN(C(=O)CCC1CCC(=O)N1)c1ccc(-c2nc3ccccc3s2)cc1 (stereo not drawn) [Compound 177]	YES
O=C(CCC1CCC(=O)N1)Nc1ccc(Cc2nc3ccccc3s2)cc1 (stereo not drawn) [Compound 178]	YES
CC(=O)NCCCC(=O)N[C@H]1CC[C@@H](Cc2nc3ccccc3s2)CC1 [Compound 171]	YES
CC(=O)NCCCC(=O)Nc1cccc(-c2nc3ccccc3s2)c1 [Compound 71]	YES
C=C(C)NCCC(=C)Nc1cc(C)cc(Cc2nc3ccccc3s2)c1 [Compound 120]	YES
CC(=O)NCCCC(=O)Nc1ccc(-c2nccs2)cc1 [Compound 70]	YES
CC(=O)NCCCC(=O)N[C@H]1CC[C@H](c2nc3ccccc3s2)C1 [Compound 115]	YES
O=C(CCCN1C(=O)CCC1=O)NC1CCC(c2nc3ccccc3s2)C1 (stereo not drawn) [Compound 90]	YES
CC(=O)NCCCC(=O)NC1CCC(c2nc3ccccc3s2)CC1 (stereo not drawn) [Compound 28]	YES
O=C(CCCN1C(=O)CCC1=O)N[C@H]1C[C@@H](c2nc3ccccc3s2)C1 [Compound 97]	YES

System: HEK
Assay: Cell cytotoxicity 50 assay (CC50), HEK cells
Assay type: cell-based
Settings: not given
Method in brief: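 CC50 was fitted from total luminescence, measured 5 min after adding CellTiter-Glo reagent to HEK cells. The cells had been exposed for 72 h at 37 °C to medium serial dilutions prepared from a 10 mM drug solution.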

SMILES	CC50 [µM]
O=C(CCCN1C(=O)CCC1=O)N[C@H]1CC[C@H](c2nc3ccccc3s2)C1 [Compound 161]	> 10
O=C(CCCN1C(=O)CCC1=O)Nc1nc2ccccc2s1 [Compound 108]	> 10

System: MB200 cells
Assay: Cell cytotoxicity 50 assay (CC50), MB200 cells, cell titer glo
Assay type: cell-based
Settings: 72 h
Method in brief: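 Luminescence from CellTiter-Glo after 72 h of compound exposure at 37 °C gave the CC50 for MB200 cells. These were plated at 10 k cells/well in triplicate in supplemented F10 medium and treated with a serial dilution series prepared from a 10 mM stock.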

SMILES	CC50 [µM]
O=C(CCCN1C(=O)CCC1=O)N[C@H]1CC[C@H](c2nc3ccccc3s2)C1 [Compound 161]	> 10
O=C(CCCN1C(=O)CCC1=O)Nc1nc2ccccc2s1 [Compound 108]	> 10
